Reference: ChEMBL document CHEMBL1201862, “PubChem BioAssay data set” (2004)
Active and inactive are the calls of the source.

Key:
[1] = target: T1, Oxysterols receptor LXR-beta (Homo sapiens, UniProt P55055); experiment: LXR agonists, Gal4 luciferase reporter, dose response, counter-screen for ssDAF-12 agonist project, cell-based, luminescence, HEK293, S. stercoralis campaign (AID 720737); format: functional; details: read-out: IC50 (the source's name)
T1 sequence (P55055 whole entry): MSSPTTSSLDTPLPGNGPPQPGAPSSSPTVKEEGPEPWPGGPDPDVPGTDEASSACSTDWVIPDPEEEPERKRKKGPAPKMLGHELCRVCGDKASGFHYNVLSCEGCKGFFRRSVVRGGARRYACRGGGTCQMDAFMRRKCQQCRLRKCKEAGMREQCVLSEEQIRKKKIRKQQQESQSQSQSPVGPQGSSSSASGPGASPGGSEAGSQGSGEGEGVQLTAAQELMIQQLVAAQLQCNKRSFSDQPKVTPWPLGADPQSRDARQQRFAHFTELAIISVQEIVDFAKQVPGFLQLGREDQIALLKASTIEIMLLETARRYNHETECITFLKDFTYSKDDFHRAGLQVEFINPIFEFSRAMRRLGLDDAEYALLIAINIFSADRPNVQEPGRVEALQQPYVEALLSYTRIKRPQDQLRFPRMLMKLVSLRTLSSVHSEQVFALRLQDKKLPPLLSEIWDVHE

[2] = Luminescence-based cell-based high throughput dose response assay to identify activators of the DAF-12 from the parasite S. stercoralis (ssDAF-12).; format: functional
cells [3] = experiment: cells
Cytochrome P450 3A4 [4] = target: T2, Cytochrome P450 3A4 (Homo sapiens, UniProt P08684);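 further: CYP3A4 tested as one member of a cytochrome P450 panel screen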
[5] = target: T1, Oxysterols receptor LXR-beta; format: functional, cell-based
Cytochrome P450 2D6 = Cytochrome P450 2D6 (Homo sapiens, UniProt P10635);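 further: CYP2D6 member of a cytochrome P450 panel assay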
cells [6] = experiment: cells; remark: listed apart in the source
[7] = Luminescence Cell-Based Dose Response to Identify Activators of 5'UTR Stem-Loop Driven Prion Protein mRNA Translation in H4-C Neuroglioblastoma Cells. [Related pubchem assays: 1829 (Project Summary), 1814 (Primary HTS)]; format: functional
[8] = Luminescence Cell-Based Dose Response HTS to Identify Activators of Luciferase Translation or Activity in H4 […] Cells. [Related pubchem assays: 1829 (Project Summary), 1814 (Primary HTS)]; format: functional
[9] = miR-122 activators in hepatoma reporter cells, dose response, cell-based, Huh7 psiCHECK-miR122, Renilla luciferase, cherry-picked (AID 651956); format: functional;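 further: huh7 hepatoma cells stably carrying a psiCHECK-2 miR-122 sensor plasmid; renilla luciferase signal reporting endogenous miR-122 activity after 48 h compound exposure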
[10] = HEK293T cytotoxicity, dose response, cytotoxicity control for miR-122 modulator project, cell-based, inhibitor set, cherry-pick, set 2 (AID 720697); format: functional
[11] = Luminescence Cell-Based Dose Response to Identify Activators of Luciferase Translation or Activity in H4-C Neuroglioblastoma Cells. [Related pubchem assays: 1829 (Project Summary), 1814 (Primary HTS)]; format: functional
[12] = HEK293T cytotoxicity, dose response, cytotoxicity control for miR-122 modulator project, cell-based, activator set, cherry-pick (AID 720690); format: functional;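 further: HEK293T human cells scored for general mammalian cytotoxicity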
H4 = experiment: Luminescence Cell-Based Dose Response HTS to Identify Activators of 5'UTR Stem-Loop Driven Prion Protein mRNA Translation in H4 Neuroglioblastoma Cells. [Related pubchem assays: 1829 (Project Summary), 1814 (Primary HTS)]; format: functional; details: Homo sapiens
[13] = Luminescence Cell-Based Dose Confirmation to Identify Activators of 5'UTR Stem-Loop Driven Alpha-Synuclein mRNA Translation in H4 Neuroglioblastoma Cells. [Related pubchem assays: 1829 (Project Summary), 1814 (Primary HTS)]; format: functional
Cytochrome P450 3A4 [14] = target: T2, Cytochrome P450 3A4; remark: listed apart in the source
[15] = Luminescence Cell-Based Dose Confirmation HTS to Identify Activators of 5'UTR Stem-Loop Driven Alpha-Synuclein mRNA Translation in H4 Neuroglioblastoma Cells. [Related pubchem assays: 1829 (Project Summary), 1814 (Primary HTS)]; format: functional
[16] = target: Heat shock protein HSP 90-alpha (Homo sapiens, UniProt P07900); format: functional, organism-based
cells [17] = details: A549
[18] = HepG2 cell cytotoxicity, dose response, cytotoxicity control, ATP luminescence, cherry-pick, set 6 (AID 1053125); format: functional, cell-based
cells [19] = details: HEK293;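 further: cells exposed to compound for 48 hours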
[20] = Luminescence Cell-Based Dose Retest to Confirm Inhibitors of Cancer Stem Cells. [Related pubchem assays (depositor defined):AID2717, AID2721]; format: functional; details: Homo sapiens
[21] = target: T1, Oxysterols receptor LXR-beta; format: functional, cell-based; remark: listed apart in the source
[22] = HEK293 Cytotoxicity Assay Measured in Cell-Based System Using Plate Reader - 7071-01_Inhibitor_Dose_CherryPick_Activity_Set2.; format: functional
HEK293 = experiment: HEK293T cell cytotoxicity, dose response, cytotoxicity control, ATP luminescence, cherry-pick samples (AID 687005); format: functional, cell-based; details: Homo sapiens;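 further: cells exposed to compound for 48 hours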
[23] = P. falciparum 3D7-ScDHODH growth inhibitors, dose response, SYBR Green, dry powder samples (AID 1159570); format: functional, cell-based;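 further: parasite growth measured after 72 hours of compound exposure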
Paired box protein Pax-8 = Paired box protein Pax-8 (Homo sapiens, UniProt Q06710); experiment: inhibitors of PAX8-driven TPO luciferase reporter, dose response, RMG-I cells, cherry-pick (AID 687027); format: functional, cell-based;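 further: luciferase reporter driven by Pax8 target thyroperoxidase promoter measured by SteadyGlo luminescence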
[24] = A2780 ovarian cancer cell cytotoxicity, dose response, cytotoxicity control, plate reader, dry powder samples (AID 743046); format: functional, cell-based
[25] = P. falciparum Dd2 growth inhibitors, dose response, SYBR Green, cherry-picked samples (AID 1159567); format: functional, cell-based
[26] = HEK293 cell cytotoxicity, dose response, cytotoxicity control, plate reader, cherry-picked samples (AID 743446); format: functional, cell-based
[27] = HepG2 cell cytotoxicity, dose response, cytotoxicity control, plate reader, cherry-pick, antagonist series (AID 743416); format: functional, cell-based
[28] = IOSE-T80 ovarian epithelial cell cytotoxicity, dose response, cytotoxicity control for PAX8 inhibitor project, plate reader, dry powder samples (AID 743045); format: functional, cell-based
[29] = MC4R antagonists, dose response, counter-screen for LGR2 antagonist project, cell-based, plate reader, cherry pick (AID 743444); format: functional;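 further: transfected HEK 293 cells stimulated with alpha-MSH peptide; potency of inhibitors of the alpha-MSH evoked signal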
[30] = NIH:OVCAR-3 ovarian cancer cell cytotoxicity, dose response, PAX8 inhibitor project, plate reader, dry powder samples (AID 743044); format: functional, cell-based
[31] = A549 cell cytotoxicity, dose response, cytotoxicity control, plate reader, cherry-pick, antagonist series (AID 743412); format: functional, cell-based
[32] = LGR2 antagonists, dose response, cell-based, HEK293, CRE-luciferase reporter, cherry pick, set 2 (AID 743343); format: functional;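 further: transfected cells were stimulated with diluted bursicon conditioned medium after compound addition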
[33] = cytotoxicity in OVCAR8 ovarian cancer cells, dose response, PAX8 project, cell-based, plate reader, dry powder samples (AID 743197); format: functional; details: OVCAR-8
[34] = P. falciparum Dd2 growth inhibitors, dose response, SYBR Green, dry powder samples (AID 1159566); format: functional, cell-based;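 further: potency for growth inhibition with lower SYBR green DNA signal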
[35] = HepG2 cell cytotoxicity, dose response, cytotoxicity control, plate reader, dry powder samples (AID 1159569); format: functional, cell-based;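 further: inhibitor potency with signal falling toward the positive control level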
[36] = IGROV1 ovarian cancer cell cytotoxicity, dose response, PAX8 inhibitor project, plate reader, dry powder samples (AID 743043); format: functional, cell-based; details: IGROV-1
[37] = P. falciparum ATP4 D1247Y mutant growth inhibitors, dose response, NITD609-resistant line, SYBR Green, dry powder (AID 1159571); format: functional, cell-based;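 further: parasites synchronized at ring stage by sorbitol before testing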
[38] = HIV Env cell-cell fusion inhibitors, dose response, HIV entry, plate reader, dry powder (AID 687023); format: functional, cell-based
[39] = ZM109 Env clade C HIV-1 fusion inhibitors, dose response, HeLa effector, CEM target cells, luciferase, cherry-pick (AID 652058); format: functional, cell-based
[40] = inhibitors of HIV Env-driven cell fusion, dose response, cherry-pick (AID 652057); format: functional, cell-based
[41] = inhibitors of clade B AD8 Env fusion, dose response, cell-based, cherry-pick (AID 652062); format: functional;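 further: luciferase signal from cell-cell fusion driven by HIV-1 clade B AD8 Env; potency is for inhibitors of fusion seen as a drop in luminescence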
[42] = target: Potassium channel subfamily K member 3 (Homo sapiens, UniProt O14649); experiment: TASK1 (KCNK3) potassium channel inhibitors, SAR follow-up, CHO cells, FluxOR thallium flux (AID 652212); format: functional
[43] = HeLa cell cytotoxicity, dose response, cytotoxicity control, 24 h, plate reader, dry powder (AID 686928); format: functional, cell-based
[44] = HEK293 cell cytotoxicity, dose response, cytotoxicity control, ATP luminescence, dry powder, Set6 (AID 743142); format: functional, cell-based
[45] = A549 cell cytotoxicity, dose response, cytotoxicity control, CellTiter-Glo luminescence, dry powder, set 3 (AID 743146); format: functional, cell-based
[46] = TRPM1 promoter luciferase reporter signal decrease, dose response, MITF inhibitor project, cell-based, SK-MEL-5, dry powder, set 8 (AID 624430); format: functional
[47] = MITF: Counter assay: A375 proliferation Measured in Cell-Based System Using Plate Reader - 2084-03_Inhibitor_Dose_DryPowder_Activity_Set8.; format: functional; details: A-375
[48] = MITF Orthogonal Assay: SK-MEL-5 CTG Assay Measured in Cell-Based System Using Plate Reader - 2084-02_Inhibitor_Dose_DryPowder_Activity_Set7.; format: functional
[49] = target: Metabotropic glutamate receptor 3 (Rattus norvegicus, UniProt P31422); experiment: mGlu3 negative allosteric modulator potency, dose response, HEK/GIRK cells, thallium flux, rat (AID 651839); format: functional
[50] = Late stage results for the probe development effort to identify inhibitors of Plasmodium falciparum gametocytes: Luminescence-based cell-based high throughput dose response assay to identify inhibitors of viability of late stage Plasmodium falciparum gametocytes.; format: functional
NS3 = NS3 (Hepatitis C virus, UniProt A3EZJ3); experiment: HCV NS3 helicase inhibitor potency, dose response, biochemical, fluorescence polarization, ChemBridge library (AID 743264)
Cytochrome P450 2C9 = Cytochrome P450 2C9 (Homo sapiens, UniProt P11712)
[51] = M. tuberculosis growth inhibition, HTS (AID 449762); format: functional

T2 sequence (P08684 whole entry): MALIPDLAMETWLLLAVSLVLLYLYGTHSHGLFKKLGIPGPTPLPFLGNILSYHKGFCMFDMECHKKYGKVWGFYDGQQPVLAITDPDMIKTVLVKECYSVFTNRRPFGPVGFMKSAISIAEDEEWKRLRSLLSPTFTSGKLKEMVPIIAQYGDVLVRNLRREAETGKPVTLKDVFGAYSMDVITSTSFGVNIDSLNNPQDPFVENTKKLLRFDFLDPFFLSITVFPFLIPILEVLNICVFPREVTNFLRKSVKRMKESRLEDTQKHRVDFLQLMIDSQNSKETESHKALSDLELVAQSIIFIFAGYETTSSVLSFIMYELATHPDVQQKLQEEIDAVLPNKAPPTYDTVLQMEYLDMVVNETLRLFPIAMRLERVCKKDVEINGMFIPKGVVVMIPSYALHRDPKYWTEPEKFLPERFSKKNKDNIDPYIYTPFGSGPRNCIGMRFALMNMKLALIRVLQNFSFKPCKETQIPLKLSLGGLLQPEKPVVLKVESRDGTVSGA
NS3, sequence (A3EZJ3 whole entry): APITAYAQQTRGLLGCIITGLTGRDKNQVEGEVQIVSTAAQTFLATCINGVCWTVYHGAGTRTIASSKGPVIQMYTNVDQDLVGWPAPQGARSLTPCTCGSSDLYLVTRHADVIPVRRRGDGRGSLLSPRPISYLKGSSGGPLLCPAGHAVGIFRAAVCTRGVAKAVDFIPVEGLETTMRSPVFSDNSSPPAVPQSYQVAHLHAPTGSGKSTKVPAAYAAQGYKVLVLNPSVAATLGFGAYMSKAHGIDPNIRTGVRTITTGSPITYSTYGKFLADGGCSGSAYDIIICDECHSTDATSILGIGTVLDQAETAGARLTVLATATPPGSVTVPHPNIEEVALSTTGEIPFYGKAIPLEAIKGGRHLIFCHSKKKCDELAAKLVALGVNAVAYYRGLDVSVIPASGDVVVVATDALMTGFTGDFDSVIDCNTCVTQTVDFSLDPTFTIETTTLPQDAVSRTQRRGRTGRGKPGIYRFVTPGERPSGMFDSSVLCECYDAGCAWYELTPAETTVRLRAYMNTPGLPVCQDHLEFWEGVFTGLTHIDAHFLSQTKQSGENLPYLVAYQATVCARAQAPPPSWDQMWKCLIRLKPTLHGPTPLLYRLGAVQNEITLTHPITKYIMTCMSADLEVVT
Paired box protein Pax-8, sequence (Q06710 whole entry): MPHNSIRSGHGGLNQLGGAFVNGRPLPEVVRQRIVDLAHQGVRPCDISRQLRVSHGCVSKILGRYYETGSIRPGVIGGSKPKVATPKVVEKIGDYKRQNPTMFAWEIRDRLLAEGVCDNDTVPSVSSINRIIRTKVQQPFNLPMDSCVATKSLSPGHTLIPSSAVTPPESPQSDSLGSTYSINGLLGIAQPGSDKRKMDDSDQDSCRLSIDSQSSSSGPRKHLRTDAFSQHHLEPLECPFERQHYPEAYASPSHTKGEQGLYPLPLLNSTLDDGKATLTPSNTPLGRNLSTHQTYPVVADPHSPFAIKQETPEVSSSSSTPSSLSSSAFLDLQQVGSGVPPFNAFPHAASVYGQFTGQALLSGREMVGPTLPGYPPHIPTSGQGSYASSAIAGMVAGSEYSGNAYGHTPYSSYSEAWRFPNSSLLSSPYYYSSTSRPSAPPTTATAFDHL
Cytochrome P450 2D6, sequence (P10635 whole entry): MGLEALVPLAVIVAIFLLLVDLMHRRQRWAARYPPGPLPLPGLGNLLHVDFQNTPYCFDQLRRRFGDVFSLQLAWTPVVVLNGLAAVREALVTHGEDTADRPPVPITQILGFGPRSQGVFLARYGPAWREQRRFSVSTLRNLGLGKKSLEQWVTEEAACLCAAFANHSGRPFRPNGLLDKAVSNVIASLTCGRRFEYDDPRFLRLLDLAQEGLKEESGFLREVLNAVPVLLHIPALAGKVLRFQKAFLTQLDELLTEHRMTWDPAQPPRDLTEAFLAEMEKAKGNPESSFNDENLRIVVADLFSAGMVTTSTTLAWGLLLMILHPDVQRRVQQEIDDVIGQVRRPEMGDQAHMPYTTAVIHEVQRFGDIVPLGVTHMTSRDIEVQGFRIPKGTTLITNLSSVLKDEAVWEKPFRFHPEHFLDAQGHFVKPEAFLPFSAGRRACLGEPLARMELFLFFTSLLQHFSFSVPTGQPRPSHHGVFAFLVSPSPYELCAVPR
Potassium channel subfamily K member 3, sequence (O14649 whole entry): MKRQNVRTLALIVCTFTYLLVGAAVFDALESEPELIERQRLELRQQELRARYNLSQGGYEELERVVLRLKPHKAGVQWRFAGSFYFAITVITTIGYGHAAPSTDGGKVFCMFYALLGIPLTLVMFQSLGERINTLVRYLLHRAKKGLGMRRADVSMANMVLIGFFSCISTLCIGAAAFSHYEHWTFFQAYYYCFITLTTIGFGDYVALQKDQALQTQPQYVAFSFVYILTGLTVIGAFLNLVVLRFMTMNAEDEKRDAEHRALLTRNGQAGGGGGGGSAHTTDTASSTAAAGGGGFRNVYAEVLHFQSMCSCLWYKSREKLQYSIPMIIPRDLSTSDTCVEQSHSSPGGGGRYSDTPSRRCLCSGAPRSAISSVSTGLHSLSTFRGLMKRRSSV
Cytochrome P450 2C9, sequence (P11712 whole entry): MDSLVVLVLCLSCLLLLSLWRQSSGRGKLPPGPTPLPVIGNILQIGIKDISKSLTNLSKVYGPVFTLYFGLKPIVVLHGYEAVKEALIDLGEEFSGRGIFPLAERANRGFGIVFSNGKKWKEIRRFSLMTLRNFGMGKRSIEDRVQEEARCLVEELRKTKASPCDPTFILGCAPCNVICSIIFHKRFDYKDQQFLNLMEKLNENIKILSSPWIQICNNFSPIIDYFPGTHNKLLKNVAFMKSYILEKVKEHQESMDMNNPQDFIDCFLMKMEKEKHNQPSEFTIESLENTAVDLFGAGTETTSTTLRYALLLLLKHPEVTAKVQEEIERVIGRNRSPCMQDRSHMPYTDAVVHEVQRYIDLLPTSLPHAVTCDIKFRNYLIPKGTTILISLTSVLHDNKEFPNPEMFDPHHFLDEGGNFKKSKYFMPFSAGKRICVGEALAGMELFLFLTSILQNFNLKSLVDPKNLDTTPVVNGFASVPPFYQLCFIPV
Metabotropic glutamate receptor 3, sequence (P31422 whole entry): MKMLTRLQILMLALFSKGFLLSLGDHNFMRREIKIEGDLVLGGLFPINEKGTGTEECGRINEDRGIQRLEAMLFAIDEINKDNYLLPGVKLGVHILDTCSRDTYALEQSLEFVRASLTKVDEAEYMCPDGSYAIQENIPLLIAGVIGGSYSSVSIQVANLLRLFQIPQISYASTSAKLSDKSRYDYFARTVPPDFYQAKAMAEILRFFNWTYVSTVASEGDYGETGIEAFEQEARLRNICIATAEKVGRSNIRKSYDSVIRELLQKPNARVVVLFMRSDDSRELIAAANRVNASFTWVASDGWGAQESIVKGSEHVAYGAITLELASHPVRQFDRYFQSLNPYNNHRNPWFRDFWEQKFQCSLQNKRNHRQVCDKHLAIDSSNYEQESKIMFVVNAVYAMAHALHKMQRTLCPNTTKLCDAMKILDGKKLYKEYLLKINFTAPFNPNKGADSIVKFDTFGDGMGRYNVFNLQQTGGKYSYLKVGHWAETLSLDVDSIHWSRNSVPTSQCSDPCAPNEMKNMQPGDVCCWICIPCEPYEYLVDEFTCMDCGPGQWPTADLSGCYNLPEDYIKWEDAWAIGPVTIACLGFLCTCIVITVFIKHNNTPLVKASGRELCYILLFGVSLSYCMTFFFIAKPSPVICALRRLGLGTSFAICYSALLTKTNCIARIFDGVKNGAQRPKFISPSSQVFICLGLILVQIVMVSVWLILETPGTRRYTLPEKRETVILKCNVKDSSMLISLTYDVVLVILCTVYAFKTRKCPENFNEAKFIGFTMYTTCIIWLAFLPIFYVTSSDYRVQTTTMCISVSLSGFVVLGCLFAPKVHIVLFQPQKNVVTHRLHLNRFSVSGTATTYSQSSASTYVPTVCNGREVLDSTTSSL

Cc1ccccc1-c1cc(-c2ccccc2O)on1
inconclusive: AC50 (Cytochrome P450 3A4 [4]) 31.6 µM | AC50 (Cytochrome P450 2D6) 22.4 µM
inactive: EC50 [1] > 67.6 µM | IC50 [2] > 67.6 µM | EC50 (cells [3]) > 67.6 µM | EC50 [5] > 67.6 µM

COc1cc(C(=O)NCCCNc2nc3c(C)cc(C)cc3cc2C#N)cc(OC)c1OC
active: AC50 (cells [6]) 4.79 µM

CCOC(=O)c1cc2c(C)n(-c3ccc(C)cc3)c(C)c2ccc1=O
inconclusive: AC50 (Cytochrome P450 3A4 [14])
active: EC50 [7] 0.333 µM | EC50 [8] < 0.1 µM | AC50 [9] 1.46 µM | AC50 [10] 7.08 µM | EC50 [11] 0.376 µM | AC50 [12] 3.93 µM | EC50 (H4) < 0.1 µM | EC50 [13] 0.262 µM | EC50 [15] 0.1 µM

CCCCCCc1cc2cc(S(=O)(=O)c3ccc(Cl)cc3)c(=O)oc2cc1O
active: AC50 [16] 0.476 µM | AC50 (cells [17]) 35.6 µM | AC50 [18] 41.4 µM | AC50 [20] 0.797 µM
inactive: AC50 (cells [19]) > 52 µM

Cc1ccc(N/C=C(/C#N)c2ccsc2)cc1C
inactive: EC50 [21] > 67.5 µM

COc1ccccc1-c1ccc([C@H]2[C@H](C#N)N(C(=O)C3CC3)[C@H]2CO)cc1
active: AC50 [22] 24.8 µM | AC50 (HEK293) 24.8 µM

N#Cc1cccc(-c2ccc([C@@H]3[C@@H]4CN(C(=O)C5CC5)C[C@H]3N4)cc2)c1
active: AC50 [23] 0.405 µM | AC50 (Paired box protein Pax-8) 1.25 µM | AC50 [24] 9.05 µM | AC50 [25] 0.489 µM | AC50 [26] 13.1 µM | AC50 [27] 5.88 µM | AC50 [28] 68.8 µM | AC50 [29] 2.49 µM | AC50 [30] 12.2 µM | AC50 [31] 1.97 µM | AC50 [32] 2.62 µM | AC50 [33] 4.43 µM | AC50 [34] 0.267 µM | AC50 [35] 2.84 µM | AC50 [36] 7.63 µM | AC50 [37] 0.455 µM

Cc1noc(C)c1S(=O)(=O)N(C)C[C@@H]1Oc2ccc(NC(=O)Nc3ccccc3)cc2CC(=O)N([C@@H](C)CO)C[C@@H]1C
active: AC50 [38] 14.2 µM | AC50 [39] 15.2 µM | AC50 [40] 19.7 µM | AC50 [41] 36.9 µM

CCOc1ccccc1NC(=O)c1cccc(C(=O)NC2CCCC2)c1
active: IC50 [42] 0.342 µM

O=C(Nc1nnc(C2CCCC2)o1)C1CCCCC1
active: AC50 [43] 165 µM

O=C(CCNC(=O)c1ccc(C(F)(F)F)cc1)N[C@@H]1CCCc2ccccc21
active: AC50 [44] 7.54 µM | AC50 [45] 26 µM

COc1ccc(NC2=C(N3CCN(C(C)C)CC3)C(=O)c3ccccc3C2=O)cc1
active: AC50 [46] 3.28 µM | AC50 [47] 45 µM | AC50 [48] 16.6 µM

COc1ccc(-c2ccc3cc(C(=O)N4CCCC(CO)C4)ccc3c2)cn1 (configuration not stated)
active: IC50 [49] 6.77 µM

O=C(Nc1nccs1)c1cn(-c2ccccc2)nc1-c1ccc(Cl)cc1
inactive: IC50 [50] > 37.2 µM

O=C(O)Cc1c[nH]c2ccc(O)cc12
inconclusive: AC50 (Cytochrome P450 2C9)
active: IC50 (NS3) 69.3 µM | IC50 [51] > 100 µM
